{
  "source": "patent US12421179B2",
  "about": "“Production method for radiolabeled aryl compound” (OSAKA UNIVERSITY, priority 2017, dated 2025)",
  "key": {"[1]": {"test_system": "C6 glioma cell derived from rat", "assay": "Glioma cell uptake experiment", "format": "cell-based", "details": "for cell uptake reduced by LAT1 inhibitor (BCH) to fraction of uptake: 100 mM BCH addition group; for cell uptake reduced by competitive inhibitor (Phe) to fraction of uptake: 1% Phe addition group; for specificity of cell uptake (via LAT1): concluded from Phe and BCH inhibition; for cell uptake (amount of radioactivity taken up intracellularly): inhibitor-free group, amino acid-free HBSS medium", "procedure": "The concentration of the 4-211At-L-phenylalanine (4-^211At-Phe) solution prepared in Example 2 and the 3-^211At-D,L-phenylalanine (3-^211At-Phe) solution prepared in Example 7 were each adjusted to 5 MBq/2 mg·ml. C6 glioma cell derived from rat was seeded on each well of 24-well plate by 5×10^5 cells/well, is and the cells were used in the next day's experiment (cell number: about 1×10^6 cells/well). Before the experiment, the medium was replaced with an amino acid-free HBSS medium (0.5 ml/well). 4-^211At-Phe or 3-^211At-Phe was added to each well of the plate by 10 μl, and the wells were divided into three groups of inhibitor-free group, 1% Phe addition group (competitive inhibitor) and 100 mM BCH addition group (LAT1 inhibitor), and incubated at 37° C. for 30 minutes or 60 minutes. After the incubation, the culture solution was removed, and the cells were washed with PBS, and lysed, and the amount of radioactivity taken up intracellularly was measured. […] Moreover, the cell uptake after 60 minutes was reduced, compared to that after 30 minutes. The competitive inhibitor (Phe) reduced the cell uptake of 4-^211At-Phe and 3-^211At-Phe to ½ to ⅓, and LAT1 inhibitor (BCH) reduced the cell uptake of 4-^211At-Phe and 3-^211At-Phe to ¼ to ⅛. […] Especially, the cell uptake of 3-^211At-Phe was more than that of 4-^211At-Phe, and therefore, 3-211At-Phe can be further expected for the above-mentioned application."}, "C6 glioma tumor": {"test_system": "C6 glioma tumor", "assay": "SPECT imaging of C6 glioma-transplanted rat", "format": "in vivo", "details": "1 MBq, tail vein; 30 minutes and 3 hours after administration; tumor in both flanks", "procedure": "The 4-^211At-L-phenylalanine (4-^211At-Phe) (1 MBq) prepared in Example 2 was administered to the tail vein of the glioma-transplanted rat, and the rat was imaged by SPECT camera (E-cam, Siemens). In both images, the is accumulation of 4-^211At-Phe in the tumor (both flanks, indicated by arrows in the figure) was observed. Therefore, 4-^211At-Phe can be expected to be applied to RI internal therapy or diagnosis for cancer."}},
  "data": [
    {"smiles": "N[C@@H](Cc1ccc([211At])cc1)C(=O)O", "note": "[4-^211At-Phe, 4-^211At-L-phenylalanine]", "values": [
      {"measurement": "cell uptake reduced by LAT1 inhibitor (BCH) to fraction of uptake", "setting": "[1]", "value": "¼ to ⅛"},
      {"measurement": "cell uptake reduced by competitive inhibitor (Phe) to fraction of uptake", "setting": "[1]", "value": "½ to ⅓"},
      {"measurement": "cell uptake after 60 minutes compared to that after 30 minutes", "setting": "[1]; C6 glioma cells, 37° C.", "value": "reduced"},
      {"measurement": "specificity of cell uptake (via LAT1)", "setting": "[1]", "value": "specifically taken up by the cells via LAT1"},
      {"measurement": "cell uptake (amount of radioactivity taken up intracellularly)", "setting": "[1]; 37° C., 30 or 60 minutes", "value": "taken up by the cell"},
      {"measurement": "accumulation in the tumor (SPECT images)", "setting": "C6 glioma tumor", "value": "observed"}
    ]},
    {"smiles": "NC(Cc1cccc([211At])c1)C(=O)O", "note": "(racemic) [3-^211At-Phe, 3-^211At-D,L-phenylalanine]", "values": [
      {"measurement": "cell uptake reduced by LAT1 inhibitor (BCH) to fraction of uptake", "setting": "[1]", "value": "¼ to ⅛"},
      {"measurement": "cell uptake reduced by competitive inhibitor (Phe) to fraction of uptake", "setting": "[1]", "value": "½ to ⅓"},
      {"measurement": "cell uptake after 60 minutes compared to that after 30 minutes", "setting": "[1]; C6 glioma cells, 37° C.", "value": "reduced"},
      {"measurement": "cell uptake compared with 4-^211At-Phe", "setting": "[1]; C6 glioma cells, 37° C., 30 or 60 minutes", "value": "slightly more than that of 4-^211At-Phe"},
      {"measurement": "specificity of cell uptake (via LAT1)", "setting": "[1]", "value": "specifically taken up by the cells via LAT1"},
      {"measurement": "cell uptake (amount of radioactivity taken up intracellularly)", "setting": "[1]; 37° C., 30 or 60 minutes", "value": "taken up by the cell"},
      {"measurement": "uptake by cancer cells (general statement)", "setting": "[1]; summary statement in the description", "value": "taken up in large amounts by cancer cells"}
    ]}
  ]
}
